The target of the assay is T1, human V1a receptor (Homo sapiens, UniProt P37288).
T1 construct: expressed in transfected cells; host or cells: HEK293 cells, transiently transfected; membranes prepared
T1 sequence (P37288 whole entry): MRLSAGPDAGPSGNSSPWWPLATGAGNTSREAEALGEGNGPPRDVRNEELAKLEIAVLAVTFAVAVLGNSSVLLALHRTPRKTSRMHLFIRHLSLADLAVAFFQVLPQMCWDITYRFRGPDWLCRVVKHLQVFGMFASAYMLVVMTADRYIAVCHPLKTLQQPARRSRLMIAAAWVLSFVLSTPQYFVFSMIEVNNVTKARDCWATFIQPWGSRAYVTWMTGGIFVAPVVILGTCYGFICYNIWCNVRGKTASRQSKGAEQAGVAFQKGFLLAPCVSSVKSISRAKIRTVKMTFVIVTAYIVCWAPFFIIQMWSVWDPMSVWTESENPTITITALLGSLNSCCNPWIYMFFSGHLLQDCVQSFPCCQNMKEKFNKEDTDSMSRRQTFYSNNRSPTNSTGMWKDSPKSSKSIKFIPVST
Kind of assay: human V1a receptor binding (3H-Vasopressin SPA, HEK293 membranes). The conditions noted are these: membranes of HEK293 cells transiently transfected with human V1a receptor, Ki by Cheng-Prussoff, read-out: pKi (hV1a) (converted). An outline of the steps: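 HEK293 membranes transiently expressing cloned human V1a receptor, bound to yttrium silicate SPA beads in Tris/NaCl/KCl/CaCl2/MgCl2 buffer. Test compounds in 2% DMSO competed with 3H-vasopressin (4 nM solution added) for 1 h at room temperature; non-specific binding defined with cold vasopressin. IC50 from non-linear fit, Ki via Cheng-Prusoff.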
As to `Cc1nc([C@H]2CC[C@H](c3nnc4n3-c3ccc(Cl)cc3CN(C(=O)OC(C)(C)C)C4)CC2)oc1Cl` [Example 98, trans-8-Chloro-1-[4-(5-chloro-4-methyl-oxazol-2-yl)-cyclohexyl]-4H,6H-2,3,5,10b-tetraaza-benzo[e]azulene-5-carboxylic acid tert-butyl ester], the Ki is 1.1 nM.

On to `Cc1nc([C@H]2CC[C@H](c3nnc4n3-c3ccc(Cl)cc3CNC4)CC2)oc1Cl` [Example 99, trans-8-Chloro-1-[4-(5-chloro-4-methyl-oxazol-2-yl)-cyclohexyl]-5,6-dihydro-4H-2,3,5,10b-tetraaza-benzo[e]azulene], for which the Ki was 5.37 nM.

Regarding `Cc1nc([C@H]2CC[C@H](c3nnc4n3-c3ccc(Cl)cc3CN(C)C4)CC2)oc1Cl` [Example 100, trans-8-Chloro-1-[4-(5-chloro-4-methyl-oxazol-2-yl)-cyclohexyl]-5-methyl-5,6-dihydro-4H-2,3,5,10b-tetraaza-benzo[e]azulene], the Ki was 1.1 nM.

On to `Cc1nc([C@H]2CC[C@H](c3nnc4n3-c3ccc(Cl)cc3CN(C(=O)OC(C)(C)C)C4)CC2)sc1Cl` [Example 101, trans-8-Chloro-1-[4-(5-chloro-4-methyl-thiazol-2-yl)-cyclohexyl]-4H,6H-2,3,5,10b-tetraaza-benzo[e]azulene-5-carboxylic acid tert-butyl ester], for which the Ki was 1.29 nM.

As for `Cc1nc([C@H]2CC[C@H](c3nnc4n3-c3ccc(Cl)cc3CNC4)CC2)sc1Cl` [Example 102, trans-8-Chloro-1-[4-(5-chloro-4-methyl-thiazol-2-yl)-cyclohexyl]-5,6-dihydro-4H-2,3,5,10b-tetraaza-benzo[e]azulene], the Ki was 3.8 nM.

On to `Cc1nc([C@H]2CC[C@H](c3nnc4n3-c3ccc(Cl)cc3CN(C)C4)CC2)sc1Cl` [Example 103, trans-8-Chloro-1-[4-(5-chloro-4-methyl-thiazol-2-yl)-cyclohexyl]-5-methyl-5,6-dihydro-4H-2,3,5,10b-tetraaza-benzo[e]azulene], for which the Ki is 1.58 nM.

For `Cc1nc([C@H]2CC[C@H](c3nnc4n3-c3ccc(Cl)cc3CN(C(=O)OC(C)(C)C)C4)CC2)sc1C` [Example 104, trans-8-Chloro-1-[4-(4,5-dimethyl-thiazol-2-yl)-cyclohexyl]-4H,6H-2,3,5,10b-tetraaza-benzo[e]azulene-5-carboxylic acid tert-butyl ester], the Ki was 0.794 nM.

In the case of `Cc1nc([C@H]2CC[C@H](c3nnc4n3-c3ccc(Cl)cc3CNC4)CC2)sc1C` [Example 105, trans-8-Chloro-1-[4-(4,5-dimethyl-thiazol-2-yl)-cyclohexyl]-5,6-dihydro-4H-2,3,5,10b-tetraaza-benzo[e]azulene], the Ki was 21.9 nM.

Take `Cc1nc([C@H]2CC[C@H](c3nnc4n3-c3ccc(Cl)cc3CN(C)C4)CC2)sc1C` [Example 106, trans-8-Chloro-1-[4-(4,5-dimethyl-thiazol-2-yl)-cyclohexyl]-5-methyl-5,6-dihydro-4H-2,3,5,10b-tetraaza-benzo[e]azulene]: the Ki is 2.29 nM.

For `CN1Cc2cc(Cl)ccc2-n2c(nnc2[C@H]2CC[C@H](c3noc4c3CCC4)CC2)C1` [Example 107, trans-8-Chloro-1-[4-(5,6-dihydro-4H-cyclopenta[d]isoxazol-3-yl)-cyclohexyl]-5-methyl-5,6-dihydro-4H-2,3,5,10b-tetraaza-benzo[e]azulene], the Ki is 1.58 nM.

As for `CC(C)(C)OC(=O)N1Cc2cc(Cl)ccc2-n2c(nnc2[C@H]2CC[C@H](c3noc(CO)c3CO)CC2)C1` [Example 108, trans-1-[4-(4,5-Bis-hydroxymethyl-isoxazol-3-yl)-cyclohexyl]-8-chloro-4H,6H-2,3,5,10b-tetraaza-benzo[e]azulene-5-carboxylic acid tert-butyl ester], the Ki was 12.6 nM.

Regarding `Clc1ccc2c(c1)CNCc1nnc([C@H]3CC[C@H](n4cccn4)CC3)n1-2` [Example 110, trans-8-Chloro-1-(4-pyrazol-1-yl-cyclohexyl)-5,6-dihydro-4H-2,3,5,10b-tetraaza-benzo[e]azulene], the Ki was 42.7 nM.

Take `CN1Cc2cc(Cl)ccc2-n2c(nnc2[C@H]2CC[C@H](n3cccn3)CC2)C1` [Example 111, trans-8-Chloro-5-methyl-1-(4-pyrazol-1-yl-cyclohexyl)-5,6-dihydro-4H-2,3,5,10b-tetraaza-benzo[e]azulene]: the Ki was 17 nM.

Take `CC(C)(C)OC(=O)N1Cc2cc(Cl)ccc2-n2c(nnc2[C@H]2CC[C@@H](n3cccn3)CC2)C1` [Example 112, cis-8-Chloro-1-(4-pyrazol-1-yl-cyclohexyl)-4H,6H-2,3,5,10b-tetraaza-benzo[e]azulene-5-carboxylic acid tert-butyl ester]: the Ki is 75.9 nM.

In the case of `Clc1ccc2c(c1)CNCc1nnc([C@H]3CC[C@@H](n4cccn4)CC3)n1-2` [Example 113, cis-8-Chloro-1-(4-pyrazol-1-yl-cyclohexyl)-5,6-dihydro-4H-2,3,5,10b-tetraaza-benzo[e]azulene], the Ki is 794 nM.

Regarding `CN1Cc2cc(Cl)ccc2-n2c(nnc2[C@H]2CC[C@@H](n3cccn3)CC2)C1` [Example 114, cis-8-Chloro-5-methyl-1-(4-pyrazol-1-yl-cyclohexyl)-5,6-dihydro-4H-2,3,5,10b-tetraaza-benzo[e]azulene], the Ki was 794 nM.

Consider `Cc1cc(C)n([C@H]2CC[C@H](c3nnc4n3-c3ccc(Cl)cc3CN(C(=O)OC(C)(C)C)C4)CC2)n1` [Example 115, trans-8-Chloro-1-[4-(3,5-dimethyl-pyrazol-1-yl)-cyclohexyl]-4H,6H-2,3,5,10b-tetraaza-benzo[e]azulene-5-carboxylic acid tert-butyl ester], for which the Ki was 0.17 nM.

`Cc1cc(C)n([C@H]2CC[C@H](c3nnc4n3-c3ccc(Cl)cc3CNC4)CC2)n1` [Example 116, trans-8-Chloro-1-[4-(3,5-dimethyl-pyrazol-1-yl)-cyclohexyl]-5,6-dihydro-4H-2,3,5,10b-tetraaza-benzo[e]azulene]: the Ki was 72.4 nM.

`Cc1cc(C)n([C@H]2CC[C@H](c3nnc4n3-c3ccc(Cl)cc3CN(C)C4)CC2)n1` [Example 117, trans-8-Chloro-1-[4-(3,5-dimethyl-pyrazol-1-yl)-cyclohexyl]-5-methyl-5,6-dihydro-4H-2,3,5,10b-tetraaza-benzo[e]azulene]: the Ki is 6.92 nM.

Consider `Cc1nn([C@H]2CC[C@H](c3nnc4n3-c3ccc(Cl)cc3CN(C(=O)OC(C)(C)C)C4)CC2)c(C)c1C` [Example 118, trans-8-Chloro-1-[4-(3,4,5-trimethyl-pyrazol-1-yl)-cyclohexyl]-4H,6H-2,3,5,10b-tetraaza-benzo[e]azulene-5-carboxylic acid tert-butyl ester], for which the Ki was 0.832 nM.

In the case of `Cc1nn([C@H]2CC[C@H](c3nnc4n3-c3ccc(Cl)cc3CNC4)CC2)c(C)c1C` [Example 119, trans-8-Chloro-1-[4-(3,4,5-trimethyl-pyrazol-1-yl)-cyclohexyl]-5,6-dihydro-4H-2,3,5,10b-tetraaza-benzo[e]azulene], the Ki is 2.19 nM.

As for `Cc1nn([C@H]2CC[C@H](c3nnc4n3-c3ccc(Cl)cc3CN(C)C4)CC2)c(C)c1C` [Example 120, trans-8-Chloro-1-[4-(3,4,5-trimethyl-pyrazol-1-yl)-cyclohexyl]-5-methyl-5,6-dihydro-4H-2,3,5,10b-tetraaza-benzo[e]azulene], the Ki is 1.95 nM.

These data come from US8513238B2 (Hoffmann-La Roche Inc., priority 2010, dated 2013).
